Measured values reported in paper PMC11118832 (Biomolecules, 2024).
Square brackets hold non-standard residues; d marks the D form. Peptide text beside a SMILES is read from it. 1Nal = N[C@@H](Cc1cccc2ccccc12)C(=O)O; pS = N[C@@H](COP(=O)(O)O)C(=O)O; Lys(Me) = CNCCCC[C@H](N)C(=O)O; hLeu = CC(C)CC[C@H](N)C(=O)O; Nle = CCCC[C@H](N)C(=O)O

Molecular target: T1, PD-1/PD-L1 (Homo sapiens, UniProt Q15116)
T1 construct: this kit uses ectodomains of PD-1 and PD-L1 that are expressed with orthogonal fusion tags (Tag-1 and Tag-2); purchased CisBio (currently Perkin-Elmer, Bedford, MA)
Assay: In vitro time-resolved FRET PD-1/PD-L1 binding assay (CisBio kit)
Details: CisBio PD-1/PD-L1 binding kit, TR FRET, 96-well, 4-fold serial dilutions in triplicate, freshly dissolved peptides; read-out: IC50, inhibition of PD-1/PD-L1 binding (TR FRET assay)
Method: Commercial PD-1/PD-L1 binding assay kit (CisBio, currently Perkin-Elmer, Bedford, MA) for time resolve fluorescent energy transfer (FRET) was used to assess peptides binding to PD-1. The assay for peptide screening was performed in a 96-well format (normal pressure), starting with 4-fold serial dilutions of each peptide in triplicate. No-peptide triplicate wells were used to assess fluorescent energy transfer in the absence of inhibition, and no-PD-1/PD-L1 triplicate wells were used to assess the background fluorescent energy transfer in the absence of PD-1/PD-L1 complexes. More detailed concentration dependences were obtained for selected peptides. Only freshly dissolved peptides were used in the assay. Various QSAR (quantitative structure activity relationship) hypotheses were tested by synthesizing batches of 10–12 peptides. In total, over one hundred candidates in ten iterations were screened for their ability to inhibit in vitro PD-1/PD-L1 binding using the commercial PD-1/PD-L1 binding assay kit (CisBio, currently Perkin-Elmer). Briefly, this kit uses ectodomains of PD-1 and PD-L1 that are expressed with orthogonal fusion tags (Tag-1 and Tag-2). It also includes two antibodies to selectively interact with these tags. The antibody against one tag is labeled with fluorescent moiety, which serves as a donor, while the other antibody is labeled with fluorescent moiety, which serves as an acceptor in fluorescent resonance energy transfer (FRET). When the complex is formed and probed with both anti-Tag-1 and anti-Tag-2 antibodies, donor and acceptor are sufficiently close, and FRET can be detected in a time-resolved (TR) manner. Inhibitors of PD-1/PD-L1 interactions prevent complex formation, leading to a decrease in TR FRET in a concentration-dependent manner, as shown in Figure 2 for four representative peptide inhibitors. Initial fourfold dilutions are exemplified by data for peptides B5.11 and B5.6 (panels A and B); examples of the more detailed follow-up concentration dependences are shown for peptides B2.4 and B2.22 (panels C and D). The potency of the inhibitors is then characterized by IC50, a concentration that inhibits TR FRET by 50%, allowing for a facile comparison of different inhibitors (Figure 2E).

Molecule	IC50 [µM]
CCCC[C@H](NC(C)=O)C(=O)N[C@H](C(=O)N[C@@H](CC(C)C)C(=O)N[C@H](C(=O)N[C@H](C(=O)N[C@H](C(=O)NCC(=O)N[C@@H](C)C(=O)N[C@@H](C)C(=O)N[C@@H](Cc1c[nH]c2ccccc12)C(=O)N[C@@H](CC(=O)O)C(=O)N[C@@H](Cc1ccc(O)cc1)C(=O)N[C@@H](CCCCN)C(=O)N[C@@H](Cc1ccc(O)cc1)C(N)=O)C(C)C)[C@@H](C)CC)C(C)C)C(C)C [B5.6] (Ac-[Nle]VLVIVGAAWDYKY-NH2)	0.2
Ac-DVIDGAAWDYKY-NH2 [B5.11]	0.05
Ac-DVIVGAAWDYKY-NH2 [B3.15]	0.13

Same assay, conditions: CisBio PD-1/PD-L1 binding kit, TR FRET, 96-well, serial dilutions in triplicate; NI = no inhibition at maximum concentration tested (* 5 μM, ** 50 μM); read-out: EC50 (Supplementary Table S1; inhibition of PD-1/PD-L1 binding by in vitro TR-FRET assay)

Molecule	EC50 [µM]
CCCC[C@H](NC(C)=O)C(=O)N[C@H](C(=O)N[C@@H](CC(C)C)C(=O)N[C@H](C(=O)N[C@H](C(=O)N[C@H](C(=O)NCC(=O)N[C@@H](C)C(=O)N[C@@H](C)C(=O)N[C@@H](Cc1c[nH]c2ccccc12)C(=O)N[C@@H](CC(=O)O)C(=O)N[C@@H](Cc1ccc(O)cc1)C(=O)N[C@@H](CCCCN)C(=O)N[C@@H](Cc1ccc(O)cc1)C(N)=O)C(C)C)[C@@H](C)CC)C(C)C)C(C)C [B5.6] (Ac-[Nle]VLVIVGAAWDYKY-NH2)	0.2
CCCC[C@H](NC(=O)[C@H](CC(=O)O)NC(C)=O)C(=O)N[C@H](C(=O)N[C@H](C(=O)NCC(=O)N[C@@H](C)C(=O)N[C@@H](C)C(=O)N[C@@H](Cc1c[nH]c2ccccc12)C(=O)N[C@@H](CC(=O)O)C(=O)N[C@@H](Cc1ccc(O)cc1)C(=O)N[C@@H](CCCCN)C(=O)N[C@@H](Cc1ccc(O)cc1)C(N)=O)C(C)C)[C@@H](C)CC [B5.7] (Ac-D[Nle]IVGAAWDYKY-NH2)	> 5
CC[C@H](C)[C@H](NC(=O)[C@@H](NC(=O)[C@H](CC(C)C)NC(C)=O)C(C)C)C(=O)N[C@H](C(=O)NCC(=O)N[C@@H](C)C(=O)N[C@@H](C)C(=O)N[C@@H](Cc1c[nH]c2ccccc12)C(=O)N[C@@H](COP(=O)(O)O)C(=O)N[C@@H](Cc1ccc(O)cc1)C(=O)N[C@@H](CCCCN)C(=O)N[C@@H](Cc1ccc(O)cc1)C(N)=O)C(C)C [B6.2] (Ac-LVIVGAAW[pS]YKY-NH2)	> 5
CC[C@H](C)[C@H](NC(=O)[C@@H](NC(=O)[C@H](CC(=O)O)NC(C)=O)C(C)C)C(=O)N[C@H](C(=O)NCC(=O)N[C@@H](C)C(=O)N[C@@H](C)C(=O)N[C@@H](Cc1c[nH]c2ccccc12)C(=O)N[C@@H](CC(=O)O)C(=O)N[C@@H](CCCCNC)C(=O)N[C@@H](CCCCN)C(=O)N[C@@H](Cc1ccc(O)cc1)C(N)=O)C(C)C [B6.3] (Ac-DVIVGAAWD[Lys(Me)]KY-NH2)	> 5
CC(=O)N[C@@H](CC(=O)O)C(=O)N[C@H](C(=O)N[C@@H](CCC(C)C)C(=O)N[C@@H](CC(=O)O)C(=O)NCC(=O)N[C@@H](C)C(=O)N[C@@H](C)C(=O)N[C@@H](Cc1c[nH]c2ccccc12)C(=O)N[C@@H](CC(=O)O)C(=O)N[C@@H](Cc1ccc(O)cc1)C(=O)N[C@@H](CCCCN)C(=O)N[C@@H](Cc1ccc(O)cc1)C(N)=O)C(C)C [B8.14] (Ac-DV[hLeu]DGAAWDYKY-NH2)	> 5
CC(=O)N[C@H](CC(=O)O)C(=O)N[C@@H](C)C(=O)N[C@@H](Cc1c[nH]c2ccccc12)C(=O)N[C@@H](CC(=O)O)C(=O)N[C@@H](Cc1ccc(O)cc1)C(=O)N[C@@H](CCCCN)C(=O)N[C@@H](Cc1ccc(O)cc1)C(N)=O [B9.3] (Ac-[dD]AWDYKY-NH2)	> 5
CC(=O)N[C@H](CC(=O)O)C(=O)NCC(=O)N[C@@H](C)C(=O)N[C@@H](C)C(=O)N[C@@H](Cc1c[nH]c2ccccc12)C(=O)N[C@@H](CC(=O)O)C(=O)N[C@@H](Cc1ccc(O)cc1)C(=O)N[C@@H](CCCCN)C(=O)N[C@@H](Cc1ccc(O)cc1)C(N)=O [B9.8] (Ac-[dD]GAAWDYKY-NH2)	> 50
Ac-AWDYKY-NH2 [B2.19]	> 50
Ac-DAIDGAAWDYKY-NH2 [B8.2]	> 5
Ac-DGAAWDYKY-NH2 [B9.0]	> 5
Ac-DIIDGAAWDYKY-NH2 [B8.16]	> 5
Ac-DIIVGAAWDYKY-NH2 [B5.10]	> 5
Ac-DVIDGAAHDYKY-NH2 [B8.21]	> 5
Ac-DVIDGAAWDRKY-NH2 [B8.22]	> 5
Ac-DVIDGAAWDYK-NH2 [B8.24]	> 5
Ac-DVIDGAAWDYKR-NH2 [B8.23]	> 5
Ac-DVIDGAAWDYKYLT-NH2 [B7.9]	> 5
Ac-DVIDGAAWDYRY-NH2 [B8.7]	6.8
Ac-DVIDGADWDYKY-NH2 [B8.20]	> 5
Ac-DVIDPAAWDYKY-NH2 [B8.12]	> 5
Ac-DVIEGAAWDYKY-NH2 [B8.1]	2.2
Ac-DVINGAAWDYKY-NH2 [B8.4]	> 5
Ac-DVIVGAAWDYKY-NH2 [B3.15]	0.13
Ac-DVIVGAAWDYKYLQ-NH2 [B7.5]	> 5
Ac-DVIVGAAWDYKYLY-NH2 [B7.4]	> 5
Ac-DVIVGASWDYKY-NH2 [B7.3]	> 5
Ac-DVIVGSAWDYKY-NH2 [B7.2]	> 5
Ac-DVIYGAAWDYKY-NH2 [B7.10]	> 5
Ac-DVIYGAAWDYKYLT-NH2 [B7.11]	> 5

The next lines start with the values.

EC50 [µM]	Molecule
> 5	CCCC[C@H](NC(=O)[C@@H](NC(=O)[C@H](CC(=O)O)NC(C)=O)C(C)C)C(=O)N[C@H](C(=O)NCC(=O)N[C@@H](C)C(=O)N[C@@H](C)C(=O)N[C@@H](Cc1c[nH]c2ccccc12)C(=O)N[C@@H](CC(=O)O)C(=O)N[C@@H](Cc1ccc(O)cc1)C(=O)N[C@@H](CCCCN)C(=O)N[C@@H](Cc1ccc(O)cc1)C(N)=O)C(C)C [B5.8] (Ac-DV[Nle]VGAAWDYKY-NH2)
> 5	CC[C@H](C)[C@H](NC(=O)[C@@H](NC(=O)[C@H](CC(=O)O)NC(C)=O)C(C)C)C(=O)N[C@H](C(=O)NCC(=O)N[C@@H](C)C(=O)N[C@@H](C)C(=O)N[C@@H](Cc1cccc2ccccc12)C(=O)N[C@@H](CC(=O)O)C(=O)N[C@@H](Cc1ccc(O)cc1)C(=O)N[C@@H](CCCCN)C(=O)N[C@@H](Cc1ccc(O)cc1)C(N)=O)C(C)C [B6.1] (Ac-DVIVGAA[1Nal]DYKY-NH2)
> 5	CC[C@H](C)[C@H](NC(=O)[C@H](CCC(C)C)NC(=O)[C@H](CC(=O)O)NC(C)=O)C(=O)N[C@@H](CC(=O)O)C(=O)NCC(=O)N[C@@H](C)C(=O)N[C@@H](C)C(=O)N[C@@H](Cc1c[nH]c2ccccc12)C(=O)N[C@@H](CC(=O)O)C(=O)N[C@@H](Cc1ccc(O)cc1)C(=O)N[C@@H](CCCCN)C(=O)N[C@@H](Cc1ccc(O)cc1)C(N)=O [B8.18] (Ac-D[hLeu]IDGAAWDYKY-NH2)
> 5	CC[C@H](C)[C@H](NC(=O)[C@@H](NC(=O)[C@@H](CC(=O)O)NC(C)=O)C(C)C)C(=O)N[C@@H](CC(=O)O)C(=O)NCC(=O)N[C@@H](C)C(=O)N[C@@H](C)C(=O)N[C@@H](Cc1c[nH]c2ccccc12)C(=O)N[C@@H](CC(=O)O)C(=O)N[C@@H](Cc1ccc(O)cc1)C(=O)N[C@@H](CCCCN)C(=O)N[C@@H](Cc1ccc(O)cc1)C(N)=O [B8.19] (Ac-[dD]VIDGAAWDYKY-NH2)
> 5	CC(=O)N[C@H](CCC(=O)O)C(=O)N[C@@H](C)C(=O)N[C@@H](Cc1c[nH]c2ccccc12)C(=O)N[C@@H](CC(=O)O)C(=O)N[C@@H](Cc1ccc(O)cc1)C(=O)N[C@@H](CCCCN)C(=O)N[C@@H](Cc1ccc(O)cc1)C(N)=O [B9.5] (Ac-[dE]AWDYKY-NH2)
> 5	CC(=O)N[C@H](CC(=O)O)C(=O)N[C@@H](C)C(=O)N[C@@H](C)C(=O)N[C@@H](Cc1c[nH]c2ccccc12)C(=O)N[C@@H](CC(=O)O)C(=O)N[C@@H](Cc1ccc(O)cc1)C(=O)N[C@@H](CCCCN)C(=O)N[C@@H](Cc1ccc(O)cc1)C(N)=O [B9.9] (Ac-[dD]AAWDYKY-NH2)
> 5	Ac-DAAWDYKY-NH2 [B9.1]
> 5	Ac-DAWDYKY-NH2 [B9.2]
> 5	Ac-DDIVGAAWDYKY-NH2 [B7.6]
> 5	Ac-DLIDGAAWDYKY-NH2 [B8.15]
0.05	Ac-DVIDGAAWDYKY-NH2 [B5.11]
> 5	Ac-DVIDGAAWDYKYLQ-NH2 [B7.8]
5.8	Ac-DVIDGPAWDYKY-NH2 [B8.11]
> 5	Ac-DVIVGAAWDYKYLT-NH2 [B7.1]
